Data on one molecule can be found in patent US5187171A (G. D. Searle & Co., priority 1989, dated 1993).

Assay [1] concerns the target T1, NMDA receptor-associated glycine recognition site ("Glycine B receptor") (Rattus norvegicus, UniProt P35439).
T1 construct: synaptic plasma membranes (SPM) prepared from rat forebrain; from tissue; host or cells: rat forebrain (male Sprague-Dawley, animals from Sasco) synaptic plasma membranes, Triton X-100 washed
Put plainly: TCP modulation assay (stimulation of [3H]TCP binding). It is filed as biochemical. The settings on record: basal [3H]TCP binding. The method, then: [^3 H]TCP binding was performed using Triton X-100 washed synaptic plasma membranes (SPM) prepared from rat forebrain (30-45 day old, male Sprague-Dawley; Sasco, St. Charles, Mo.) as described previously [J. W. Thomas, W. F. Hood, J. B. Monahan, P. C. Contreras and T. L. O'Donohue, Brain Res., 442, 396-398 (1988)]. […] The samples were then filtered through glass fiber filters (Schleicher and Schuell #32) which were pretreated with 0.05% (v/v) polyethylenimine. The filters were washed and the radioactivity quantitated by liquid scintillation spectrometry. […] The EC50 values for the stimulation of [^3 H]TCP binding were determined using a four parameter logistic regression analysis.

The test system of assay [2] is mentally disturbed patients. The settings on record: 500 mg per day, cited from earlier work.

SMILES strings stand for the structures.

Take `N[C@@H]1CONC1=O` [D-cycloserine, 4-amino-3-isoxazolidone]: in assay [1], the “Maximal stimulation of [3H]TCP binding compared with glycine and D-serine” value is “significantly less than that produced by both glycine and D-serine”. For the same molecule, in assay [2] (mentally disturbed patients), the Clinical response result is reported as “improvements in depression, insomnia, anexoria or tension were found for some patients”. In addition, the “Clinical response of patients suffering from severe neurosis or psychosis” value in assay [2] is “responded poorly”.
